# From US10532065B2, “Bisphosphonic acid derivative and application for same” (NAGASAKI UNIVERSITY, priority 2014, dated 2020)
# “Also recorded” adds a separate entry of the source.
# Experiments:
# [1] = tested on: γδ T cells in peripheral blood mononuclear cells of a healthy adult; conditions: healthy adult PBMC, 1 μM, IL-2, 14 days of culture
# Method: Mononuclear cells were obtained by the specific gravity centrifugation method from the peripheral blood of a healthy adult. The obtained mononuclear cells were suspended in Yssel medium at 1.8×10^6 cells/ml, and seeded by 1.5 ml in each well of a 24-well plate. Compound 7 was added to each well at a concentration of 1 μM, and cultured at 37° C. under 5% CO2 atmosphere. After one day of culture, IL-2 was added at a concentration of 100 IU/ml, and the cells were cultured in the presence of 100 IU/ml IL-2 thereafter up to day 6, and cultured in the presence of 30 IU/ml IL-2 from day 7. After 14 days of culture, the cells were recovered, and cell surface molecule was analyzed by flow cytometry using labeled anti-CD3 antibody and labeled anti-Vδ2 antibody. As a control, an antibody having the same isotype as anti-CD3 antibody and anti-Vδ2 antibody but irrelevant thereto was used. The ratio (%) of γδ T cells having the Vδ2 region in CD3 cells was determined.
# [2] = tested on: farnesyl diphosphate synthase (geranylgeranylation of Rap1A); test: Rap1A geranylgeranylation inhibition in tumor cells (Western blotting); assay type: cell-based; conditions: non-geranylgeranylated Rap1A, 16 hr, various tumor cell lines (FIG. 9)
# From the text: To verify this mechanism, whether the farnesyl diphosphate synthase is inhibited in the cell needs to be confirmed. If farnesyl diphosphate synthase is inhibited, intracellular concentration of geranylgeranyl diphosphate decreases, and geranylgeranylation of Rap1A small G protein is inhibited. The inhibitory effect thereof is clarified by quantifying the inhibition of geranylgeranylation of Rap1A. […] As the tumor cells, MOLT-3, PEER, C1R, J.RT3-T3.5, Raji, RAMOS-RA1, MOLT-4, HL60, U937, THP-1, SCC-3, P31/FUJ, K562, NOMO-1, YMB-1-E, MRK-nu-1, HMC-1-8, MCF-7, MDA-MB-231, T-47D, SK-BR-3, 786-0, VMRC-RCZ, UOK121, Caki-1, A-704, BxPC-3, KP4-1, KP4-2, KP4-3, MiaPaCa-2, TGBC24TKB, ACS, MG-63, LK-2, EJ-1 were used. […] Thereto was added 10 mM stock solution of compound 7 to a final concentration of 10 μM, 1 μM, 100 nM, 10 nM, 1 nM, 100 pM, 10 pM, 1 pM. These flasks were cultured at 37° C. under 5% CO2 atmosphere for 16 hr. Non-adherent cells were left unattended, and adherent cells were recovered using EDTA/trypsin solution. […] The supernatant was removed, and suspended in cell lysis solution (100 μl) composed of 1% NP-40, 0.1% SDS, 0.5% sodium deoxycholate. […]
# To quantitatively analyze the inhibitory efficiency thereof, the concentration of a compound that inhibits geranylgeranylation of Rap1A by half was calculated as EC50 value and studied by comparison. […]
# [3] = tested on: various tumor cell lines / γδ T cells; test: TNF-α production induction ability in various tumor cell lines (FIG. 7, 8); assay type: cell-based; conditions: various tumor cell lines pretreated, γδ T cells (FIG. 7, 8)
# Method: From the results of the above-mentioned Experimental Example, of the bisphosphonic acid POM ester derivatives, since the activity of compound 7 was high, the TNF-α production induction ability of this compound was studied using tumor cells other than EJ-1. In this case, to study effectiveness of POM esterification, using compound 14, which is the corresponding bisphosphonic acid, as a control to be the comparison target. […] Thereto was added a solution (500 μl) of compound 7 obtained by serially diluting 10 mM stock solution 10-fold from 20 μM, or a solution (500 μl) of compound 14 obtained by serially diluting 10 mM stock solution 10-fold from 200 μM, and the cells were suspended well. These conical tubes were stood at 37° C. for 4 hr, and the cells were washed 3 times with 5 ml of culture medium. To these cells was added 500 μl of medium, and the cells were suspended well. […] The content of TNF-α was calculated from the analytical curve of TNF-α. […]
# Therefore, TNF-α production induction ability of compound 7 was studied in more number of tumor cell lines. […] The content of TNF-α was calculated from the analytical curve of TNF-α.
# To quantitatively study the above-mentioned TNF-α production induction ability, various tumor cell lines were treated with compound 7, reacted with γδ T cells, the produced TNF-α amount was measured, and TNF-α50 value thereof was calculated. […]
structure (smiles),measurement,setting,value
"CC(C)(C)C(=O)OCOP(=O)(OCOC(=O)C(C)(C)C)C(CNc1nccs1)P(=O)(OCOC(=O)C(C)(C)C)OCOC(=O)C(C)(C)C [Compound 7, tetrakispivaloyloxymethyl 2-(thiazol-2-ylamino) ethylidene-1,1-bisphosphonate]",ratio (%) of γδ T cells having the Vδ2 region in CD3 cells,[1],99.8%
same,farnesyl diphosphate synthase inhibitory action in cells (in words),[2],"inhibits efficiently, in any tumor cells, farnesyl diphosphate synthase; also recorded: high farnesyl diphosphate synthase inhibitory action in lymphatic tumor cells and myeloidic tumor cells"
same,TNF-α production induction ability (in words),[3],TNF-α production induction ability becomes high by POM esterification in any tumor cells; also recorded: efficient induction of TNF-α production from γδ T cells in any cell line
